Assay [1] has as its target T1, BRD4 Bromodomain 1 (BRD4 BD1) (Homo sapiens, UniProt O60885).
T1 construct: 44-168 and BRD4 BD2
The experiment in a line: AlphaScreen binding assay, BRD4 BD1. Particulars: His-tagged BRD4 BD1 50 nM, biotinylated H4 (1-21) K5/8/12/16 tetra-acetylated peptide 50 nM, compounds listed under IC50 range headings. In short, it runs like this: (§1)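 Compound dilution series were mixed with His-tagged BRD4 bromodomain and biotinylated tetra-acetylated H4 (1-21) peptide at pH 7.3 (BD1 and peptide at 50 nM, BD2 and peptide at 100 nM). Donor and acceptor beads were then added, and plates were equilibrated at least 1 h before reading. IC50 values were fitted with a four-parameter logistic model.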

Assay [2] deals with T2, BRD4 Bromodomain 2 (BRD4 BD2) (Homo sapiens, UniProt O60885).
T2 construct: 333-460 were cloned, expressed, and purified to homogeneity
Briefly: AlphaScreen binding assay, BRD4 BD2. Particulars: His-tagged BRD4 BD2 100 nM, biotinylated H4 (1-21) K5/8/12/16 tetra-acetylated peptide 100 nM, compounds listed under IC50 range headings. The procedure, abridged:
as §1
In general terms: Alpha assays give light when donor and acceptor beads are brought close together.

In assay [3] the test system is acute myelocytic leukemia (AML) cell line MV4-11. The experiment in a line: Oncology cell growth assay (3-day proliferation, CellTiter-Glo). In kind it is cell-based. As to conditions: Homo sapiens, MV4-11, 72 h, MV4-11 cells, 3000 cells/well, compounds listed under IC50 range headings, read-out: MV411 IC50 (gIC50, inhibition of proliferation). The procedure, abridged:
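72 h, 37° C, 5% CO2; MV4-11, 3000 cells/well, RPMI 1640 + 10% FBS. Compound final 10, 3.3, 1.1, 0.37, 0.12, 0.041, 0.013, 0.0045 μM. Readout CellTiter-Glo luminescence; gIC50 by 4-parameter logistic fit, normalised to DMSO and no-cell background.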
For orientation: Cellular ATP, detected with luciferase, serves as a proxy for viable cell number.

For `CC(=O)N1c2ccc(-c3cnn(C4CC4)c3)c(OCC(F)F)c2CC[C@@H]1C` [I-36, (S)-1-(6-(1-cyclopropyl-1H-pyrazol-4-yl)-5-(2,2-difluoroethoxy)-2-methyl-3,4-dihydroquinolin-1(2H)-yl)ethanone], the IC50 is 1000 to 10000 nM in assay [1], less than 50 nM in assay [2] and 500 to 1000 nM in assay [3].

With `CC(=O)N1c2ccc(-c3cnn(C4CC4)c3)c(OCC(C)(C)CO)c2CC[C@@H]1C` [I-39, (S)-1-(6-(1-cyclopropyl-1H-pyrazol-4-yl)-5-(3-hydroxy-2,2-dimethylpropoxy)-2-methyl-3,4-dihydroquinolin-1(2H)-yl)ethanone], the IC50 was 100 to 1000 nM in assay [1], less than 50 nM in assay [2] and 500 to 1000 nM in assay [3].

Consider `CC(=O)N1c2ccc(-c3cnn(C4CC4)c3)c(OCCN3CCCC3=O)c2CC[C@@H]1C` [I-42, (S)-1-(2-(1-acetyl-6-(1-cyclopropyl-1H-pyrazol-4-yl)-2-methyl-1,2,3,4-tetrahydroquinolin-5-yloxy)ethyl)pyrrolidin-2-one], for which the IC50 in assay [1] is 100 to 1000 nM; in assay [2] it was 50 to 500 nM; in assay [3], greater than 1000 nM.

As for `CC(=O)N1c2ccc(-c3cnn(C4CC4)c3)c(OCC(=O)N3CCOCC3)c2CC[C@@H]1C` [I-43, (S)-2-(1-acetyl-6-(1-cyclopropyl-1H-pyrazol-4-yl)-2-methyl-1,2,3,4-tetrahydroquinolin-5-yloxy)-1-morpholinoethanone], the IC50 in assay [1] was 100 to 1000 nM; in assay [2], 50 to 500 nM; in assay [3], greater than 1000 nM.

Consider `CC(=O)N1c2ccc(-c3cnn(C4CC4)c3)c(OCCN3CCCS3(=O)=O)c2CC[C@@H]1C` [I-44, 2-(2-{[(2S)-1-acetyl-6-(1-cyclopropyl-1H-pyrazol-4-yl)-2-methyl-1,2,3,4-tetrahydroquinolin-5-yl]oxy}ethyl)-1λ^6,2-thiazolidine-1,1-dione], for which the values for the IC50 in assay [1], in assay [2] and in assay [3] were 100 to 1000 nM, less than 50 nM and 500 to 1000 nM, respectively.

`CC(=O)N1c2ccc(-c3cnn(C4CC4)c3)c(OCS(=O)(=O)N(C)C)c2CC[C@@H]1C` [I-46, (S)-(1-acetyl-6-(1-cyclopropyl-1H-pyrazol-4-yl)-2-methyl-1,2,3,4-tetrahydroquinolin-5-yloxy)-N,N-dimethylmethanesulfonamide]: the IC50 in assay [1] was 1000 to 10000 nM; in assay [2], 50 to 500 nM; in assay [3], 500 to 1000 nM.

On to `CC(=O)N1c2ccc(-c3cnn(C4CC4)c3)c(OCC3CC3(F)F)c2CC[C@@H]1C` (stereo partly drawn) [I-48, 1-((S)-6-(1-cyclopropyl-1H-pyrazol-4-yl)-5-((2,2-difluorocyclopropyl)methoxy)-2-methyl-3,4-dihydroquinolin-1(2H)-yl)ethanone], for which the values for the IC50 in assay [1], in assay [2] and in assay [3] were less than 100 nM, less than 50 nM and less than 500 nM, respectively.

For `CC(=O)N1c2ccc(-c3cnn(C4CC4)c3)c(OCC3(CO)COC3)c2CC[C@@H]1C` [I-49, (S)-1-(6-(1-cyclopropyl-1H-pyrazol-4-yl)-5-((3-(hydroxymethyl)oxetan-3-yl)methoxy)-2-methyl-3,4-dihydroquinolin-1(2H)-yl)ethanone], the IC50 in assay [1] was 100 to 1000 nM; in assay [2], less than 50 nM; in assay [3], greater than 1000 nM.

As for `CC(=O)N1c2ccc(-c3cnn(C4CC4)c3)c(OCC3(F)COC3)c2CC[C@@H]1C` [I-50, (S)-1-(6-(1-cyclopropyl-1H-pyrazol-4-yl)-5-((3-fluorooxetan-3-yl)methoxy)-2-methyl-3,4-dihydroquinolin-1 (2H)-yl)ethanone], the IC50 in assay [1] is 100 to 1000 nM; in assay [2], less than 50 nM; in assay [3] it was 500 to 1000 nM.

On to `CC(=O)N1c2ccc(-c3cnn(C4CC4)c3)c(OC3CC(F)(F)C3)c2CC[C@@H]1C` [I-51, (S)-1-(6-(1-cyclopropyl-1H-pyrazol-4-yl)-5-(3,3-difluorocyclobutoxy)-2-methyl-3,4-dihydroquinolin-1(2H)-yl)ethanone], for which the IC50 was 100 to 1000 nM in assay [1], less than 50 nM in assay [2] and less than 500 nM in assay [3].

Turning to `C[C@H]1CCc2c(ccc(-c3cn(C)nn3)c2OC2CCC2)N1C(=O)C1CC1` [I-53, (S)-(5-cyclobutoxy-2-methyl-6-(1-methyl-1H-1,2,3-triazol-4-yl)-3,4-dihydroquinolin-1 (2H)-yl)(cyclopropyl)methanone], the IC50 in assay [1] was 100 to 1000 nM; in assay [2] it was less than 50 nM; in assay [3], less than 500 nM.

`CC(=O)N1c2ccc(-c3cnn(C4CC4)c3)c(OC3CNC3)c2CC[C@@H]1C` [I-60, (S)-1-(5-(azetidin-3-yloxy)-6-(1-cyclopropyl-1H-pyrazol-4-yl)-2-methyl-3,4-dihydroquinolin-1(2H)-yl)ethanone]: the IC50 in assay [1] was no less than 10000 nM; in assay [2], no less than 500 nM; in assay [3], greater than 1000 nM.

In the case of `COC(=O)N1c2ccc(-c3cnn(C4CS(=O)(=O)C4)c3)c(OC3CCC3)c2CC[C@@H]1C` [I-61, Methyl (S)-5-cyclobutoxy-6-(1-(1,1-dioxidothietan-3-yl)-1H-pyrazol-4-yl)-2-methyl-3,4-dihydroquinoline-1(2H)-carboxylate], the IC50 in assay [1] was 100 to 1000 nM; in assay [2] it was 50 to 500 nM; in assay [3], less than 500 nM.

Regarding `COC(=O)N1c2ccc(-c3cnn(C4CCCS(=O)(=O)C4)c3)c(OC3CCC3)c2CC[C@@H]1C` (stereo partly drawn) [I-62, Methyl (2S)-5-cyclobutoxy-6-(1-(1,1-dioxidotetrahydro-2H-thiopyran-3-yl)-1H-pyrazol-4-yl)-2-methyl-3,4-dihydroquinoline-1(2H)-carboxylate], the figures for the IC50 in assay [1], in assay [2] and in assay [3] were 100 to 1000 nM, less than 50 nM and less than 500 nM, respectively.

For `CC(=O)N1c2ccc(-c3cnn(C4CC4)c3)c(OCC(C)(C)F)c2CC[C@@H]1C` [I-67, (S)-1-(6-(1-cyclopropyl-1H-pyrazol-4-yl)-5-(2-fluoro-2-methylpropoxy)-2-methyl-3,4-dihydroquinolin-1 (2H)-yl)ethanone], the results for the IC50 in assay [1], in assay [2] and in assay [3] were 100 to 1000 nM, less than 50 nM and less than 500 nM, respectively.

`COC(=O)N1c2ccc(-c3cnn(C4CCOCC4)c3)c(OC3CCC3)c2CC[C@@H]1C` [I-68, (S)-methyl 5-cyclobutoxy-2-methyl-6-(1-(tetrahydro-2H-pyran-4-yl)-1H-pyrazol-4-yl)-3,4-dihydroquinoline-1(2H)-carboxylate]: the IC50 in assay [1] is 100 to 1000 nM; in assay [2], less than 50 nM; in assay [3], less than 500 nM.

Take `CC(=O)N1c2ccc(-c3cnn(C4CC4)c3)c(Oc3ncc4ccccc4n3)c2CC[C@@H]1C` [I-77, (S)-1-(6-(1-cyclopropyl-1H-pyrazol-4-yl)-2-methyl-5-(quinazolin-2-yloxy)-3,4-dihydroquinolin-1(2H)-yl)ethanone]: the results for the IC50 in assay [1], in assay [2] and in assay [3] were 100 to 1000 nM, less than 50 nM and less than 500 nM, respectively.

As for `CC(=O)N1c2ccc(-c3cnn(C4CC4)c3)c(Oc3nc4ccccc4o3)c2CC[C@@H]1C` [I-78, (S)-1-(5-(benzo[d]oxazol-2-yloxy)-6-(1-cyclopropyl-1H-pyrazol-4-yl)-2-methyl-3,4-dihydroquinolin-1(2H)-yl)ethanone], the IC50 in assay [1] is 100 to 1000 nM; in assay [2], 50 to 500 nM; in assay [3], less than 500 nM.

`CC(=O)N1c2ccc(-c3cnn(CCO)c3)c(Oc3ncccn3)c2CC[C@@H]1C` [I-80, (S)-1-(6-(1-(2-hydroxyethyl)-1H-pyrazol-4-yl)-2-methyl-5-(pyrimidin-2-yloxy)-3,4-dihydroquinolin-1 (2H)-yl)ethanone]: the figures for the IC50 in assay [1], in assay [2] and in assay [3] were 100 to 1000 nM, less than 50 nM and less than 500 nM, respectively.

Consider `CC(=O)N1c2ccc(-c3cnn(C4CC4)c3)c(Oc3ncccc3C(N)=O)c2CC[C@@H]1C` [I-81, (S)-2-(1-acetyl-6-(1-cyclopropyl-1H-pyrazol-4-yl)-2-methyl-1,2,3,4-tetrahydroquinolin-5-yloxy)nicotinamide], for which the IC50 in assay [1] is 100 to 1000 nM; in assay [2], 50 to 500 nM; in assay [3], less than 500 nM.

For `CC(=O)N1c2ccc(-c3cnn(C4CC4)c3)c(Oc3ncc4cn[nH]c4n3)c2CC[C@@H]1C` [I-82, (S)-1-(5-(1H-pyrazolo[3,4-d]pyrimidin-6-yloxy)-6-(1-cyclopropyl-1H-pyrazol-4-yl)-2-methyl-3,4-dihydroquinolin-1(2H)-yl)ethanone], the values for the IC50 in assay [1], in assay [2] and in assay [3] were 1000 to 10000 nM, 50 to 500 nM and 500 to 1000 nM, respectively.

On to `CC(=O)N1c2ccc(-c3cnn(C4CC4)c3)c(Oc3nccs3)c2CC[C@@H]1C` [I-83, (S)-1-(6-(1-cyclopropyl-1H-pyrazol-4-yl)-2-methyl-5-(thiazol-2-yloxy)-3,4-dihydroquinolin-1(2H)-yl)ethanone], for which the IC50 was 1000 to 10000 nM in assay [1], less than 50 nM in assay [2] and less than 500 nM in assay [3].

Take `CC(=O)N1c2ccc(-c3cnn(C4CC4)c3)c(Oc3ncccc3C#N)c2CC[C@@H]1C` [I-84, (S)-2-(1-acetyl-6-(1-cyclopropyl-1H-pyrazol-4-yl)-2-methyl-1,2,3,4-tetrahydroquinolin-5-yloxy)nicotinonitrile]: the IC50 in assay [1] is 100 to 1000 nM; in assay [2], less than 50 nM; in assay [3] it was less than 500 nM.

The record behind these values is patent US10611750B2, “Tetrahydroquinoline compositions as bet bromodomain inhibitors” (FORMA Therapeutics, Inc., priority 2013, dated 2020).
